In patent USRE42394E1, “Fungicidal compositions for the enhancement of turf quality” (Bayer CropScience Inc., priority 1995, dated 2011):

Test system: bentgrass cultivar “Penncross”
Assay: Turf quality and color ratings on fungicide-treated bentgrass field plots (decline from crown and root rot)
Format: in vivo
Conditions: summary statements of the text on the field tests
Description: Fungicides were evaluated on a one-year-old stand of the bentgrass cultivar “Penncross” planted in Raleigh, N.C., U.S.A. The bentgrass was planted in native soil and maintained under conditions similar to a golf green with a mowing height of 0.635 cm (.25 inches).
The fungicides were applied separately and in combination at labelled rates to 1.5 m×1.5 m (5 ft×5 ft) plots of bentgrass prior to evidence of any decline in turf quality due to crown and root rot. A CO2 backpack sprayer was used to apply the fungicide treatments at (30 lbs psi) using TEEJET™ 8004 nozzles to apply 9.5 liters (2.5 gallons) of fungicide dilutions per 93 square meters (1000 sq ft). The fungicides were initially applied and subsequently reapplied according to a 14 day schedule. In some experiments, an electrical pump sprayer was used to apply the treatments at 30 psi using a Teejet 8004 nozzle.
Turf quality, color and percent disease ratings were recorded weekly, based on a scale from 1-9, with 9 being ideal turf quality and color and 1 being all turf dead. The percent disease ratings were calculated based on the percent of area in each plot showing symptoms of brown patch. Turf quality and color ratings were used as an indicator of the health of the bentgrass and the amount of decline associated with crown and root rot.

Compound: [Cu+2].c1ccc2c(c1)-c1nc-2nc2[n-]c(nc3nc(nc4[n-]c(n1)c1ccccc41)-c1ccccc1-3)c1ccccc21 [Pigment Blue 15]
- turf quality and color, comparison in words: enhances the activity of the ALIETTE™ and mancozeb in a synergistic interaction
